What all share (type): cell-based
One experiment deals with NO. The experiment in a line: NO level in LPS-mediated RAW264.7 macrophages culture medium (spectrophotometric kit). Particulars: LPS group (CTRL 6.47 ± 1.29), mean ± S.D., n = 3. The method, then: (§1) The culture medium was collected and centrifuged at 3000× g for 10 min. Then, the inflammatory cytokines levels of TNF-α (MB-50051A), IL-1β (MB-50064B) and IL-6 (MB-50054A) in the culture medium were determined with ELISA kits (Jiangsu Enzyme marker Biotechnology Co., Ltd., Yancheng, China). […] (7) Add 50 μL of stop solution to each well, and measure its absorbance value at 450 nm wavelength. The activities of SOD, GSH-Px and the levels of ROS and Nitric oxide (NO) in macrophages were determined with spectrophotometric kits. […] The absorbance value of miscible liquid was measured at 450 nm wavelength by a multifunctional microplate reader; GSH-Px: 0.2 mL of sample was mixed with 0.2 mL GSH-Px (1 mmol/L) and performed at 37 °C for 5 min. […] The absorbance value was measured at 412 nm wavelength by a multifunctional microplate reader; ROS: DCFH-DA probe was added directly to serum-free medium: DCFH-DA was generally diluted with serum-free medium at a final concentration of 10 µM at 1:1000. […] In general, obvious green fluorescence can be observed in positive control cells after 20 min of stimulation. […] It can also be detected according to FITC fluorescence detection conditions. The results were expressed as fluorescence values.

Another experiment concerns IL-6. The experiment in a line: IL-6 level by ELISA in culture medium, model of LPS-mediated RAW264.7 macrophage inflammation. Particulars: LPS group: LPS (1.0 μg/mL) alone, 24 h; mean ± S.D., n = 3. The procedure: The anti-inflammatory activity of the peptides was determined according to the methods of a previous study. The anti-inflammatory activity of different fractions was evaluated by measuring the levels of the inflammatory cytokines (TNF-α, IL-1β and IL-6) in a model of LPS-induced macrophage inflammation with ELISA kits (Jiangsu Enzyme marker Biotechnology Co., Ltd., Yancheng, China). […] A 20 mmol/L Tris-HCl (pH 8.0) solution was used as the start buffer and 20 mmol/L Tris-HCl/1 mol/L NaCl (pH 8.0) was used as elution buffer. Elution program: (1) wash with 5 column volumes of starting buffer; (2) elute with 10 column volumes of 50% elution buffer and 50% start buffer; (3) elute with 5 column volumes of 100% elution buffer. The above flow rates were 5 mL/min. The fractions were detected at 280 nm by an ultraviolet detector and collected by an automatic fraction collector.
The method of RAW264.7 macrophage culture and treatments were based on the study of Li et al.. […] Macrophages from passages 5 to 10 were selected to seed on 96-well culture plates at a density of 4 × 10^5 cells/well and cultured with different concentrations of LPS (0.5 μg/mL, 1.0 μg/mL and 2.0 μg/mL) for 24 h. The optimal concentration of LPS for inducing inflammation in the RAW264.7 macrophage was ensured according to cell viability. […] The ability of GBP to protect RAW264.7 macrophages was evaluated. […]

A further experiment concerns GSH-Px. The experiment in a line: GSH-Px activity in LPS-mediated RAW264.7 macrophages. Particulars: LPS alone; mean ± S.D., n = 3. The method, then:
as §1

For lipopolysaccharide [LPS], the “level of NO” value in the experiment on NO is reported as 28.63 ± 2.48 μM/L. Besides, in the experiment with IL-6, the “level of IL-6” value was 373.01 ± 12.49 pg/mL. In addition, the “level of GSH-Px” value in the experiment with GSH-Px came out at 44.63 ± 2.72 U/mg prot.

These data come from article PMC9781827, “Isolation and Identification of Anti-Inflammatory Peptide from Goose Blood Hydrolysate to Ameliorate LPS-Mediated Inflammation and Oxidative Stress in RAW264.7 Macrophages” (Molecules, 2022).
